In brackets after ≈: the same amount, converted by molar mass.
Tests used:
[1] = physchem; type: physicochemical
Protocol: The water solubility of FPF polymorph A and B was determined by saturating a certain amount of demineralized water with the respective polymorph, stirring the resulting saturated suspension overnight, filtering the undissolved solid residue, and measuring the dissolved concentration of FPF in the filtrate.

[2] = test system: bird cherry-oat aphid Rhopalosiphum padi; assay: Systemic efficacy of FPF FS 480 as barley seed treatment against aphids; type: in vivo; settings: seed treatment with FS 480
Excerpt: Physico-chemical properties are key drivers for systemic plant uptake and biological activity. To test the efficacy of different FPF modifications against the bird cherry-oat aphid Rhopalosiphum padi a sufficient number of barley seeds (variety “Scarlett”, thousand kernel weight: 43.6 g) were manually dressed with a defined amount of the Flupyradifurone FS480 formulated with 100% Form A, 100% Form B and a combination of 99% Form A and 1% Form B, respectively. Test concentrations were 0.15 g active ingredient per kg of seed (commercial dose rate in cereals) and 0.075 g active ingredient per kg of seed. Longitudinal boxes were filled with 5,900 g of a sandy loam soil (75.1% sand, 10.3% clay, 14.8% silt, 1.75% humus, pH 6.9) and 15 seeds per box were sown at spacing of approx. 2.5 cm and at depth of 3 cm. After sowing, boxes were watered to reach 50-70% of field capacity and covered with plastic foil until first plants were emerging. Aphid infestation was conducted at the second leaf stage by adding multiple pieces of infested leaf material to each test box. A second re-infestation was carried out at 3 days after the first infestation using methods described previously. The biological activity of tested FPF modifications was evaluated at 3 and 7 days after the initial infestation by a visual assessment of the colonized leaf area in comparison to the untreated and infested control. Results were expressed in percent efficacy. […] Growing conditions were at a constant temperature of 20° C., 50% relative humidity and 14 hours of illumination using sodium pressure lamps. The experiment comprised 3 replicates per treatment.

Compound: O=C1C=C(N(Cc2ccc(Cl)nc2)CC(F)F)CO1 [Polymorph B, 4-[(6-chloro-3-pyridylmethyl)(2,2-difluoroethyl)amino]furan-2(5H)-one, reference compound]
- Water Solubility [1]: 3.2 g/L

Compound: O=C1C=C(N(Cc2ccc(Cl)nc2)CC(F)F)CO1 [Polymorph A, 4-[(6-chloro-3-pyridylmethyl)(2,2-difluoroethyl)amino]furan-2(5H)-one]
- reduced water solubility of FPF form A [1]: 60%
- water solubility compared with form B [1]: significantly lower than that of form B
- water solubility of polymorphic form A as share of that of polymorphic form B [1]: 60%
- solubility ([1]; water, thermodynamic from solid, Water Solubility): 2000 µg/mL (≈ 6.93 mM)
- systemic biological efficacy compared with form B ([2]; listed as FPF form A): does not lead to a reduced biological efficacy in comparison to FPF form B
- systemic biological efficacy compared with form B ([2]; listed as form A): not reduced
- systemic biological efficacy compared with form B ([2]; listed as polymorphic form A): at the same level as that of polymorphic form B

Source: patent US20260248131A1, “AGROCHEMICAL FORMULATIONS COMPRISING CRYSTALLINE FORM A OF 4-[(6-CHLORO-3-PYRIDYL-METHYL )(2,2-DIFL UOROETHYL )AMINO]FURAN-2(5H)-ONE” (BAYER AKTIENGESELLSCHAFT, priority 2022, published 2026)
